Assay results reported in paper PMC2362091, “Expression of V1A and GRP receptors leads to cellular transformation and increased sensitivity to substance-P analogue-induced growth inhibition” (British Journal of Cancer, 2005).
In brackets after ≈: the same amount, converted by molar mass. Where two headings read alike, the source gives them in different places. Square brackets hold non-standard residues; d marks the D form. Peptide text beside a SMILES is read from it. NMeF = CN[C@@H](Cc1ccccc1)C(=O)O

Columns and labels:
[1] = tested on: CHO-V1Ar cells; assay: cells; format: cell-based
Experimental: (§1) In some assays, MTT (3-[4,5-dimethylthiazol-2yl]-2,5-diphenyl tetrazolium bromide) formazan production (Sigma) was used to measure proliferation as per the manufacturer's instructions.
(§2) Figure 4 Effect of neuropeptide on chemosensitivity. Wild-type CHO-K1 cells (left) and cells expressing the V1A (middle) or GRP (right) receptor were plated at a density of 1e^4 cells per well of a 96-well tissue culture plate in DMEM with 10% FCS and incubated overnight 37°C. […] Cell viability was assessed by MTT staining.

[2] = tested on: CHO-GRPr cells; assay: Chemosensitivity, MTT assay, GRPr cells; format: cell-based
Experimental: as §1, §2

[3] = tested on: CHO-WT cells; assay: Chemosensitivity, MTT assay, wild-type cells; format: cell-based; conditions: 48 h, absence of serum; read-out: IC50, inhibition of proliferation (MTT)
Experimental: as §1, §2

[4] = tested on: GRPR-transfected CHO-K1 cells; assay: Aggregation assay (anchorage-independent growth), GRPR-transfected cells; format: cell-based; conditions: low adhesion plates, 5% FCS, 7 days, viable cells counted
Experimental: (§3) CHO-K1 cells were suspended in DMEM in the presence of 5% FCS and seeded into low adhesion tissue culture plates on top of a layer (1 ml) of 0.5% agar. […] Cells were maintained in culture for 7 days briefly trypsinised to disaggregate clusters and viable cells counted.
(§4) Figure 3 Effect of SP-D and SP-G on clonal growth. (A) Cells were grown in 0.3% agar with 1% FCS for 8 days in the presence or absence (open bar) of 30 μM SP-D (black bar) or SP-G (grey bar). […] Aggregation assay. (B) Wild-type, GRPR-transfected and V1AR-transfected CHO-K1 cells were plated into low adhesion tissue culture plates on top of a layer of 0.5% agar in DMEM containing 5% FCS at a density of 5 × 10^4 ml^−1 in the presence of varying concentrations of SP-G. Cells were maintained in culture for 7 days, briefly trypsinised to dissagregate clusters and viable cells counted by propidium iodide exclusion.

[5] = tested on: ERK phosphorylation in GRP receptor expressing CHO cells; assay: ERK phosphorylation (Western blot), GRP receptor expressing CHO cells; format: cell-based; conditions: for maximal stimulation of ERK: at 50 μM
Experimental: (§5) Quiescent cell cultures in six-well plates were treated as described in figure legends and lysed at 4°C in 0.25 ml lysis buffer containing; 25 mM HEPES pH 7.4, 0.3 M NaCl, 1.5 mM MgCl2, 0.2 mM EDTA, 0.5% Triton X-100, 20 mM β-glycerphosphate, 0.5 mM dithiothreitol, 1 mM sodium orthovanadate and protease inhibitors (Boehringer Mannheim, Sussex, UK; prepared as per the manufacturer's instructions). Lysates were clarified by centrifugation, equilibrated for protein using BCA protein assay reagent (Perbio Science, Cheshire, UK) and denatured by boiling (5 min) in SDS–PAGE loading buffer. In all, 20 μl lysate/lane was resolved on 12% SDS–PAGE gels and electroblotted onto nitrocellulose membranes. Membranes were blocked in 3% bovine serum albumin in PBS containing 0.05% Tween-20. ERK1/2 phosphorylation was determined using 1 : 1000 dilution of the primary antibody followed by the appropriate HRP-labelled goat IgG (DAKO, UK) diluted 1 : 5000. Bands were visualized using enhanced chemiluminescence (ECL plus, Amersham) and quantified using a phosphor imager (Storm).
(§6) In this study, ERK activation was measured in CHO cells expressing GRP or V1A receptors in response to the appropriate neuropeptide or substance-P analogue. Activation was estimated in immunoblots from stimulated lysates using a phosphorylation state-specific antibody. Lysates from quiesced cells stimulated for […] with either neuropeptide or SP-D or SP-G were separated on 12% gels and blotted for pERK2 or total ERK1/2.
Figure 6 (A) ERK phosphorylation by neuropeptides. Quiescent GRP (left) or V1A (right) receptor expressing CHO cells were stimulated for 5 min with neuropeptide at the indicated concentrations. […] Representative Western blots are shown. Bar graphs represent the mean optical density (mean±s.e.m.) of four separate experiments. (B) ERK phosphorylation by substance-P analogues. Quiescent GRP (left) or V1A (right) receptor expressing CHO cells were stimulated for 5 min with SP-D (filled bars) or SP-G (open bars) at the indicated concentrations. […] Representative Western blots are shown. Bar graphs represent the mean optical density (mean±s.e.m.) of four separate experiments.
Figure 7 Effect of pertussis toxin (PTX) on ERK phosphorylation. Confluent cultures of GRP (left) or V1A (right) receptor expressing CHO cells were quiesced overnight in the presence or absence of 100 ng ml^−1 pertussis toxin. Cells were stimulated for 5 min with 30 μM SP-D or SP-G or 1 nM neuropeptide as indicated. […] Representative Western blots are shown.

[6] = tested on: vector control CHO-K1 cells; assay: Clonogenic assay in semisolid media, vector control cells; format: cell-based; conditions: 30 μM, 0.3% agar, 1% FCS, 8 days
Experimental: (§7) CHO-K1 (2x10^4) viable cells were mixed with DMEM containing 0.3% agarose in the presence or absence of mediators and layered over a solid base of 0.5% agarose in DMEM in 35 mm plastic dishes. The cultures were incubated at 37°C for 1–10 days, and then stained with 1 mg ml^−1 nitro-blue tetrazolium (NBT, Sigma) overnight at 37°C. Colonies from 10 separate fields were counted using a microscope with a × 4 objective. Cloning efficiency is calculated as the percentage of original number of seeded cells forming colonies of >6 cells.
as §4

[7] = target: T1, human V1A receptor (Homo sapiens, UniProt P37288); assay: Receptor binding, [125I]-AVP, CHO-K1-V1Ar cells; conditions: V1A over GRP receptor, from Ki
T1 construct: CHO-K1 cells were transfected with full-length human GRP receptor or human V1A receptor; expressed in transfected cells
T1 sequence (P37288 whole entry): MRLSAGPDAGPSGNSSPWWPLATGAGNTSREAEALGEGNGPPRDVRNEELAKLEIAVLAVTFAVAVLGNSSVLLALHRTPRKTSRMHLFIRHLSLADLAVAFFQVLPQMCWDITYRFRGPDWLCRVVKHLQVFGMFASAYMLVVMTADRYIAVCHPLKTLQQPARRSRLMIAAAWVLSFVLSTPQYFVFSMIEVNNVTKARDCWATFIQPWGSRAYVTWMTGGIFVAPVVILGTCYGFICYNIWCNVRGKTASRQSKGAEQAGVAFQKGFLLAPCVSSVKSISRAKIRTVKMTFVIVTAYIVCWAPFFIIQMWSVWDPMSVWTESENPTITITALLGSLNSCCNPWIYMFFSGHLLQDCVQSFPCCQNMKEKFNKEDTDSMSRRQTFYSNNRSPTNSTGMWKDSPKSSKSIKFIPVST
Experimental: CHO-K1 cells were maintained in DMEM supplemented with 10% (v v^−1) foetal bovine serum (heat-inactivated at 57°C for 1 h) 50 U ml^−1 penicillin, 50 μg ml^−1 streptomycin and 5 μg ml^−1 L-glutamine in a humidified atmosphere of 5% CO2:95% air at 37°C. CHO-K1 cells were transfected with full-length human GRP receptor or human V1A receptor using lipofectamine plus (Invitrogen) as per the manufacturer's instructions. Stable cell cultures were maintained in the presence of 400 μg ml^−1 G418-sulphate.
The binding parameters Kd and Bmax were calculated from competition binding isotherms with unlabelled ligand ([DeBlasi et al, 1989]).

[8] = design: method as in Clive et al, 2001; conditions: at therapeutic plasma concentrations; ref Clive et al, 2001; cited from earlier work
[9] = target: T2, human GRP receptor (Homo sapiens, UniProt P30550); assay: Intracellular Ca2+ (FURA-2), CHO-GRP cells; format: cell-based; conditions: in absence of GRP
T2 construct: CHO-K1 cells were transfected with full-length human GRP receptor or human V1A receptor; expressed in transfected cells
T2 sequence (P30550 whole entry): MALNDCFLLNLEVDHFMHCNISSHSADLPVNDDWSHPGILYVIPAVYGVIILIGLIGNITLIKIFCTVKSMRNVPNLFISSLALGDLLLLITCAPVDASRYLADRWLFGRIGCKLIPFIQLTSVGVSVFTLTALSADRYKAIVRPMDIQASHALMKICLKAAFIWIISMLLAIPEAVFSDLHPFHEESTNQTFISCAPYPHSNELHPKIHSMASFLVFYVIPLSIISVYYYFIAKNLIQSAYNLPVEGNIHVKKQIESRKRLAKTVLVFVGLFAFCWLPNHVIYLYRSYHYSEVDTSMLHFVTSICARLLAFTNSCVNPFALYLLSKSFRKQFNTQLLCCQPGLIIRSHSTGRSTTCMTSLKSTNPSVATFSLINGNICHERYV
Experimental: (§8) Cells were trypsinised and loaded with fura-2-tetraacetoxymethylester AME (FURA-2-AM, 1 μM) in calcium-free Hank's balanced salt solution for 10 min at 37°C. The cells were pelleted and resuspended in 2 ml of Hank's balanced salt solution containing 1.8 mM CaCl2. Fluorescence was recorded in a fluorescence spectrophotometer (Perkin Elmer). Alternate dual wavelength excitation at 380 and 410 nm allowed ratiometric analysis of bound and unbound FURA-2AM when measured at 505 nm. [Ca^2+] was calculated according to the equation [Ca^2+]=K(F−Fmin)/(Fmax−F), where F is the ratio of the unknown sample, Fmax is the ratio after the addition of 0.1% Triton X-100 and Fmin is the ratio after Ca^2+ chelation with 10 mM EGTA. K is the dissociation constant for Fura-2, which is 224 nM.
(§9) Quiescent GRP (A, B) or V1A (C, D) receptor expressing CHO cells were incubated with FURA-2AM for 15 min at 37°C and ratiometric fluorescence monitored at 37°C. […] Concentration–response curves to vasopressin were carried out in control cells and in cells treated with 1 or 10 μM SP-D (C) or SP-G (D). Results are expressed as % maximum control response to neuropeptide and represent the mean±s.e.m. of four experiments.

[10] = tested on: ERK phosphorylation in V1A receptor expressing CHO cells; assay: ERK phosphorylation (Western blot), V1A receptor expressing CHO cells; format: cell-based; conditions: for stimulation of ERK: at 50 μM
Experimental: as §5, §6
Figure 6 (A) ERK phosphorylation by neuropeptides. Quiescent GRP (left) or V1A (right) receptor expressing CHO cells were stimulated for 5 min with neuropeptide at the indicated concentrations. […] Representative Western blots are shown. Bar graphs represent the mean optical density (mean±s.e.m.) of four separate experiments. (B) ERK phosphorylation by substance-P analogues. Quiescent GRP (left) or V1A (right) receptor expressing CHO cells were stimulated for 5 min with SP-D (filled bars) or SP-G (open bars) at the indicated concentrations. […] Representative Western blots are shown. […]

[11] = tested on: GRP receptor expressing CHO-K1 cells; assay: Clonogenic assay in semisolid media, GRP receptor expressing cells; format: cell-based; conditions: 30 μM, 0.3% agar, 1% FCS, 8 days
Experimental: as §7, §4

[12] = tested on: V1A receptor expressing CHO-K1 cells; assay: Clonogenic assay in semisolid media, V1A receptor expressing cells; format: cell-based; conditions: 30 μM, 0.3% agar, 1% FCS, 8 days
Experimental: as §7, §4

[13] = target: T1, human V1A receptor; assay: Intracellular Ca2+ (FURA-2), V1A-expressing CHO cells; format: cell-based; conditions: in absence of AVP
Experimental: as §8, §9

[14] = tested on: V1AR-transfected CHO-K1 cells; assay: Aggregation assay (anchorage-independent growth), V1AR-transfected cells; format: cell-based; conditions: low adhesion plates, 5% FCS, 7 days, viable cells counted
Experimental: as §3, §4

[15] = tested on: ERK phosphorylation in untransfected CHO cells; assay: ERK phosphorylation (Western blot), untransfected CHO cells; format: cell-based; conditions: data not shown
Experimental: as §5
In this study, ERK activation was measured in CHO cells expressing GRP or V1A receptors in response to the appropriate neuropeptide or substance-P analogue. Activation was estimated in immunoblots from stimulated lysates using a phosphorylation state-specific antibody. […]

[16] = tested on: untransfected CHO-K1 cells; assay: Intracellular Ca2+ (FURA-2), untransfected cells; format: cell-based; conditions: data not shown
[17] = 48 h, absence of serum, read-out: IC50, inhibition of proliferation (MTT)
[18] = 48 h serum-free, no neuropeptide, read-out: IC50 (MTT), control cells of neuropeptide protection experiment

SMILES	cell growth in aggregation assay [4]	maximal stimulation of ERK [5]	cloning efficiency [6]	change in [Ca2+]i on their own [9]	stimulation of ERK [10]	colony formation [11]	colony formation [12]	direct mobilisation of intracellular calcium [13]	cell growth in aggregation assay [14]	further results
COc1cc([C@@H]2c3cc4c(cc3[C@@H](O[C@@H]3O[C@@H]5CO[C@@H](C)O[C@H]5[C@H](O)[C@H]3O)[C@H]3COC(=O)[C@H]23)OCO4)cc(OC)c1O [etoposide]										IC50 [1, 17]: 14.2 ± 4 µg/mL (≈ 24.1 µM); IC50 [1, 18]: 13 µg/mL (≈ 22.1 µM); IC50 [2, 17]: 8.1 ± 2.3 µg/mL (≈ 13.8 µM); IC50 [2, 18]: 6.3 µg/mL (≈ 10.7 µM); IC50 [3]: 12.4 ± 3.1 µg/mL (≈ 21.1 µM)
CSCC[C@H](NC(=O)[C@H](CC(C)C)NC(=O)[C@@H](Cc1c[nH]c2ccccc12)NC(=O)[C@H](Cc1ccccc1)N(C)C(=O)[C@@H](Cc1c[nH]c2ccccc12)NC(=O)[C@@H](N)CCCNC(=N)N)C(N)=O [SP-G, [Arg^6,D-Trp^7,9,N^mePhe^8]-substance-P (6–11)] (H-R[dW][NMeF][dW]LM-NH2; N-terminus and C-terminus assumed)	able to inhibit cell growth	2.1 fold	no effect	no change	4.3 fold	significantly reduced colony formation	significantly reduced colony formation	did not mobilise intracellular calcium directly	able to inhibit cell growth	selectivity for the V1A receptor [7]: six; toxicity in phase I clinical trial [8]: minimal toxicity; effect of pertussis toxin pretreatment on ERK activation by the substance ([10]; 100 ng ml^−1 PTX overnight, AVP, 20 μM SP-G, 1 μM LPA): completely inhibited
CC(C)C[C@H](NC(=O)[C@H](CC(C)C)NC(=O)[C@@H](Cc1c[nH]c2ccccc12)NC(=O)[C@H](Cc1ccccc1)NC(=O)[C@@H](Cc1c[nH]c2ccccc12)NC(=O)[C@H](CCC(N)=O)NC(=O)[C@@H](Cc1ccccc1)NC(=O)[C@@H]1CCCN1C(=O)[C@H](CCCCN)NC(=O)[C@@H]1CCCN1C(=O)[C@H](N)CCCNC(=N)N)C(N)=O [SP-D, [D-Arg^1,D-Phe^5,D-Trp^7,9,Leu^11]-substance-P] (H-[dR]PKP[dF]Q[dW]F[dW]LL-NH2; N-terminus and C-terminus assumed)	able to inhibit cell growth	2.8 fold	no effect	no change	2 fold	significantly reduced colony formation	significantly reduced colony formation	did not mobilise intracellular calcium directly	able to inhibit cell growth	concentration at which activation of ERK was evident [5]: 3 µM; effect of pertussis toxin pretreatment on ERK activation by the substance ([5]; 100 ng ml^−1 PTX overnight, bombesin, 10 μM SP-D, 1 μM LPA): completely abolished
CSCC[C@H](NC(=O)[C@H](CC(C)C)NC(=O)[C@H](Cc1c[nH]cn1)NC(=O)CNC(=O)[C@@H](NC(=O)[C@H](C)NC(=O)[C@H](Cc1c[nH]c2ccccc12)NC(=O)[C@H](Cc1c[nH]cn1)NC(=O)[C@H](CC(N)=O)NC(=O)CNC(=O)[C@H](CCCNC(=N)N)NC(=O)[C@@H]1CCCN1C(=O)[C@H](Cc1ccc(O)cc1)NC(=O)[C@H](CCSC)NC(=O)[C@H](CCCCN)NC(=O)[C@@H](NC(=O)[C@H](CC(C)C)NC(=O)[C@@H](NC(=O)[C@@H](NC(=O)CNC(=O)CNC(=O)CNC(=O)[C@H](C)NC(=O)[C@@H]1CCCN1C(=O)[C@H](CC(C)C)NC(=O)[C@@H]1CCCN1C(=O)[C@@H](N)C(C)C)[C@@H](C)O)C(C)C)[C@@H](C)O)C(C)C)C(N)=O [GRP, gastrin-releasing peptide]										stimulation of ERK phosphorylation [15]: Neither AVP nor GRP produced any stimulation; change in [Ca2+]i [16]: neither GRP nor AVP produced a significant change
NC(=O)CC[C@@H]1NC(=O)[C@H](Cc2ccccc2)NC(=O)[C@H](Cc2ccc(O)cc2)NC(=O)[C@@H](N)CSSC[C@@H](C(=O)N2CCC[C@H]2C(=O)N[C@@H](CCCN=C(N)N)C(=O)NCC(N)=O)NC(=O)[C@H](CC(N)=O)NC1=O [AVP, arginine vasopressin]										increase in MTT accumulation compared to control cells ([1]; 50 nM neuropeptide, at 40 μg ml^−1 etoposide, 48 h): 92%
